≈ marks a conversion by molar mass, not a printed value. Where two headings read alike, the source gives them in different places.
Assays:
Assay type in all cases: cell-based, Influenza A
[1] = system: Hong Kong/2369/2009 H275Y (H1N1)
[2] = system: Victoria/3/75-Os-R (H3N2); test: microbe, parasite or virus in culture
WSN/33 H274Y (H1N1) = system: WSN/33 H274Y (H1N1)
[3] = system: Pennsylvania/30/2009 H275Y, I223R (H1N1)
[4] = system: Mississippi/3/2001 H275Y (H1N1)
[5] = system: Hawaii/31/2007 H275Y (H1N1)

| Compound | EC50 [1] [µg/mL] | EC50 ([2]; Influenza A virus, H3N2, MDCK) [µg/mL] | EC50 (WSN/33 H274Y (H1N1)) [µg/mL] | EC50 [3] [µg/mL] | EC50 [4] [µg/mL] | EC50 [5] [µg/mL] | SI [1] | EC50 [2] [µg/mL] | SI [2] | SI (WSN/33 H274Y (H1N1)) | SI [3] | SI [4] | SI [5] |
| --- | --- | --- | --- | --- | --- | --- | --- | --- | --- | --- | --- | --- | --- |
| NC(=O)c1ncn([C@@H]2O[C@H](CO)[C@@H](O)[C@H]2O)n1 [Ribavirin, ribavirin] | 28 (≈ 115 µM) | 5.4 (≈ 22.1 µM) | 3.7 (≈ 15.2 µM) | 5.2 (≈ 21.3 µM) | 18 (≈ 73.7 µM) | 7.2 (≈ 29.5 µM) | – | – | – | – | – | – | – |
| Oseltamivir acid [Oseltamivir (OSE)] | – | – | 28 | >50 | >50 | >21 | <6.4 | >50 | 0 | >1.8 | 0 | 0 | <2.4 |

Source: patent US11230593B2, “Compositions and methods for treating and preventing influenza” (VISTERRA, INC., priority 2019, dated 2022)
